The text below walks through data of patent US11844806B2 (Asamedic AS, priority 2017, dated 2023).

Where only a bound is given, the exact number is not on record here.

Series [1] can be described thus: Dissolution of ASA on mixing with phosphate salt solution or water, shaken in the two component device. The class given is physicochemical. The procedure:
(§1) The cap comprising the powder compartment and the cutting element was assembled with the container comprising the solution.
(§2) The cap was then turned down until the seal keeping the powder and the solution separately was broken by the cutting element. […] The device was then shaken until all ASA was dissolved.
(§3) The solution was then shaken until all ASA was dissolved. A light-yellow coloring of the solution was observed.
(§4) After releasing the ASA and sodium carbonate into the water, the solution was shaken until all ASA was dissolved.

Series [2] in a line: pH of the solution after dissolution of ASA. The format is physicochemical. The following applies: for Measured pH of the solutions after dissolution of ASA: 300 mg ASA. Here is the method:
as §1, §2
Further aqueous solutions of salts of phosphoric acid were prepared. These phosphoric acid salt solutions were prepared in order to test the dissolution time of ASA at different final pH values i.e. the pH in the final ASA solution that are to be taken by the patient. Thus, the amount (mg) of the salt of phosphoric acid to be used was calculated based on the final pH to be obtained (theoretically pH).
as §3, §4

With `CC(=O)Oc1ccccc1C(=O)O` [ASA, acetylsalicylic acid], in series [1] (300 mg ASA and 258-263 mg Na2CO3 released together into 15 ml pure water, test device, Example 7 (carbonate comparison)), the “Time before ASA was dissolved” value is “approx. 120 sec”. The “Time in which ASA is dissolved in the Na2HPO4 solutions” value in series [1] (300 mg ASA, 15 ml, pH in the final solution set between approximately 7 to 8 (summary of table 2)) is not above 25 s. Also, the “Time in which ASA is dissolved in the Na3PO4.12H2O solution” value in series [1] (300 mg ASA, 15 ml, pH in the final solution set to approximately 7 (summary of table 3)) is not above 25 s. The “Time until all ASA was dissolved” value in series [1] (300 mg crushed ASA and 1000 mg crushed Na2HPO4 released together into 15 ml pure water, test device, Example 3) was not above 30 s; in series [1] (304 mg ASA and 610 mg Na3PO4 released at the same time into 15 ml pure water, Example 5), not above 30 s. The “300 mg ASA in 15 ml solution dissolved within 25 seconds” value in series [1] (422 mg (1.11 · 10^−3 mol) Na3PO4•12H2O in 15 ml, theoretical pH 7.2) was “yes”; in series [1] (474 mg (3.34 · 10^−3 mol) Na2HPO4 in 15 ml, theoretical pH 7.2), “Yes”; in series [1] (950 mg (6.67 · 10^−3 mol) Na2HPO4 in 15 ml, theoretical pH 7.7) it was “Yes”; in series [1] (1730 mg (1.21 · 10^−2 mol) Na2HPO4 in 15 ml, theoretical pH 8.0) it was “Yes”. For the same compound, in series [2] (300 mg ASA and 258-263 mg Na2CO3 in 15 ml pure water, Example 7), the “pH of the solutions after dissolution of ASA and the carbonate salt” value is 9.41-9.43. Moreover, the “Measured pH of the solutions after dissolution of ASA” value is recorded as 7.6 in series [2] (422 mg Na3PO4•12H2O in 15 ml, theoretical pH 7.2); 7.0 in series [2] (474 mg Na2HPO4 in 15 ml, theoretical pH 7.2); 7.7 in series [2] (1730 mg Na2HPO4 in 15 ml, theoretical pH 8.0). Besides, the “pH of the solution after dissolution of ASA and the hydrogen phosphate salt” value in series [2] (300 mg crushed ASA and 1000 mg crushed Na2HPO4 in 15 ml pure water, Example 3) stood at 7. Moreover, the “pH of the solution after dissolution of ASA and the phosphate salt” value in series [2] (304 mg ASA and 610 mg Na3PO4 in 15 ml pure water, Example 5) came to 10.72.
